“Also recorded” adds a separate entry of the source.
Columns and labels:
[1] = system: RTS:mbIL15 in CAR T cells; experiment: Serine recombinase (SF370) integrated single vector CAR:HER1t+RTS:mbIL15, flow cytometry of mbIL15; assay type: cell-based
Description: Various DNA plasmids containing serine recombinase attachment sites and components of the gene switch system as depicted in FIG. 17 were transfected to peripheral blood mononuclear cells (PBMC) via nucleofection to redirect T cell specificity. Specifically, 3 single vectors were tested in the presence and absence of a serine recombinase, SF370:
(i) CAR:HER1t+constitutive mbIL15 (positive control)
(ii) CAR:HER1t+promoterless mbIL15 (negative control)
(iii) CAR:HER1t+RTS:mbIL15
The expression of the CAR and mbIL15 was evaluated weekly (at days 1, day 8, day 15 and day 22). Aliquots of cells were treated with either DMSO or veledimex 24-48 h prior to each flow to assess inducible mbIL15 expression. AaPC Clone 1 was added weekly at a 1:1 ratio with CAR+ cells.

[2] = system: gene switch components VP16/RxR and Gal4/EcR controlling mbIL-15 in CD19 CAR-T cells; experiment: T cell activation and ligand specific control of mbIL-15 (NFAT6-IL2 promoter driven gene switch), flow cytometry; assay type: cell-based, human
Description: Sleeping Beauty transposons were designed to stably express CD19-specific CAR, a cell tag as well as gene switch-controlled mbIL-15. Expression of one or both of gene switch components (e.g. VP16/RxR and Gal4/EcR) were performed under the control of a T cell activation specific promoter. In this example, a T cell activation dependent promoter generated by 6×NFAT response element fused to minimal IL-2 promoter (NFAT6-IL2 promoter) was utilized to drive expression of gene switch components—VP16-RxR and/or Gal4-EcR fusion proteins for conditional expression of mbIL-15. When components of the gene switch are under the control of NFAT6-IL2 promoter, expression of mbIL-15 requires two conditions to be met: 1) T cells are activated; and 2) activator ligand, veledimex, to be present. SB transposons construct combinations shown in FIG. 20A were transfected along with SB11 transposase in donor T cells. […]
The following day (day 1) cells were counted, and CAR expression was measured by flow cytometry. […]
For flow cytometry analysis to assess expression of various markers and gene(s) of interest cells were gently resuspended and cell number and viability were measured using Trypan blue exclusion method with the Countess instrument. Cell diameter size was also recorded. […] The prepared antibody cocktails and associated fluorescence minus one/isotype control were added to stain the cell samples, and then the samples were incubated on ice for 30 min. […] All samples were run on a LSR II flow cytometer, a Fortessa X-20 flow cytometer (BD Biosciences) or iQue Screener Plus (Intellicyt) and data was analyzed using FlowJo V10 (TreeStar, Ashland, Oreg.) or iQue Screener software. […]
Non-activated or activated CAR-T cells were harvested and either 100 nM veledimex or DMSO (to keep DMSO concentration constant in both cultures) was added to the cultures. […] CAR and mbIL-15 expression was quantified in either resting (FIG. 20B) or activated T cells in presence of absence of veledimex (FIG. 20C: ConA 1 μg/mL; ConA 5 μg/mL: FIG. 20D, PMA/Ionomycin: FIG. 20E).

CCC[C@@H](N(NC(=O)c1cccc(OC)c1CC)C(=O)c1cc(C)cc(C)c1)C(C)(C)C [veledimex, N-[(1R)-1-(1,1-dimethylethyl)butyl]-N′-(2-ethyl-3-methoxybenzoyl)-3,5-dimethylbenzohydrazide]
mbIL15 expression after removal of veledimex ([1]; day 22): complete loss of mbIL15 expression
mbIL-15 expression on veledimex treatment ([1]; two weeks post-transfection, ~48 h treatment): induction of mbIL-15 expression
mbIL-15 expression in activated CAR-T cells with gene switch components under NFAT6-IL-2 promoter ([2]; constructs #3, 4 and 6, ConA 1 or 5 μg/mL or PMA/Ionomycin, 100 nM veledimex): exhibited expression of mbIL-15; also recorded: dependent on T cell activation (with addition of ConA) and presence of veledimex
mbIL-15 expression in absence of T cell activation ([2]; resting CAR-T cells, 100 nM veledimex, at least 24 hours): only CAR-T cells that harbor transposons for expression of gene switch components (e.g. VP16/RxR and Gal4/EcR) under a constitutive promoter were able to express mbIL-15
levels of mbIL-15 expression versus level of T cell activation ([2]; veledimex at fixed concentration, ConA 1 vs 5 μg/mL): increased with level of T cells activation
